test system: ApoB-100-associated lipoproteins; test: Inhibition of the release of ApoB-100-associated lipoproteins from liver cells (HepG2), immunoassay for human LDL; format: cell-based; settings: release of ApoB-100-associated particles into HepG2 culture supernatant, 50% inhibition of light adsorption at 450 nm vs solvent control
Experimental: The test for detection of the inhibition of the release of ApoB-100-associated lipoproteins from liver cells was carried out in vitro with cultured liver cells, preferably with cells of the human line HepG2. These cells are grown under standard conditions in a medium for culture of eukaryotic cells, preferably in RPMI 1640, with 10% of foetal calf serum. HepG2 cells synthesize and secrete into the culture supernatant ApoB-100-associated lipoprotein particles, which in principle are built up in a similar manner to the VLDL and LDL particles which are to be found in the plasma.
These particles can be detected with an immunoassay for human LDL. This immunoassay is carried out with antibodies which have been induced against human LDL in the rabbit under standard conditions. The anti-LDL antibodies (rab-anti-LDL-ab) were purified by affinity chromatography on an immunosorbent with human LDL. These purified rab-anti-LDL-ab are adsorbed onto the surface of plastic. This adsorption is expediently carried out on the plastic surface of microtiter plates having 96 wells, preferably on MaxiSorp plates (Nunc). If ApoB-100-associated particles are present in the supernatant of HepG2 cells, these can bind to the insolubilized rab-anti-LDL-ab, and an immune complex which is bonded to the plastic surface is formed. Non-bonded proteins are removed by washing. The immune complex on the plastic surface is detected with monoclonal antibodies, which had been induced against human LDL according to standard conditions and purified. These antibodies were conjugated with the enzyme peroxidase (Boehringer, Mannheim). Peroxidase converts the colourless substrate TMB (Kirkegaard and Perry) into a coloured product in the presence of H2 O2. After acidification of the reaction mixture with H2 SO4, the specific light adsorption at 450 nm, which is a measure of the amount of ApoB-100-associated particles which had been secreted into the culture supernatant by the HepG2 cells, is determined.
The IC50 value indicates the concentration of substance at which the light adsorption is inhibited by 50% in comparison with the control (solvent control without substance).

IC50	SMILES
500 nM	O=C(NC(CO)c1cccc(F)c1)C(c1ccc(OCc2ccc3ccccc3n2)cc1)C1CCCC1 (stereo not shown) [Example 15]
250 nM	O=C(NC(CO)c1cccs1)C(c1ccc(OCc2ccc3ccccc3n2)cc1)C1CCCC1 (stereo not shown) [Example 53]
130 nM	O=C([C@H](c1ccc(OCc2ccc3ccccc3n2)cc1)C1CCCCCC1)N(CCO)c1ccccc1 [Example 127]
20 nM	O=C(NCc1ccccc1)[C@H](c1ccc(OCc2ccc3ccccc3n2)cc1)C1CCCCCC1 [Example 141]

— patent US5693650A, “4-(Quinolin-2-yl-methoxy)-phenyl-acetic acid derivatives” (Bayer Aktiengesellschaft, priority 1994, dated 1997)
